Laboratory results: ChEMBL document CHEMBL1201862, “PubChem BioAssay data set” (2004)
Calls of active or inactive are those of the source.

Tests used:
[1] = target: Cytochrome P450 3A4 (Homo sapiens, UniProt P08684);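 also: CYP3A4 tested as one member of a cytochrome P450 panel screen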
[2] = target: Induced myeloid leukemia cell differentiation protein Mcl-1 (Homo sapiens, UniProt Q07820); type: functional
[3] = target: Nonstructural protein 1 (Influenza A virus, UniProt Q194T2); type: functional, Influenza A virus (A/California/07/2009(H1N1))
[4] = target: T1, Coagulation factor XII (Homo sapiens, UniProt P00748); type: functional;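 also: activated factor XIIa alpha cleaving a fluorogenic AMC peptide substrate; inhibitor potency from loss of enzyme activity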
T1 sequence (P00748 whole entry): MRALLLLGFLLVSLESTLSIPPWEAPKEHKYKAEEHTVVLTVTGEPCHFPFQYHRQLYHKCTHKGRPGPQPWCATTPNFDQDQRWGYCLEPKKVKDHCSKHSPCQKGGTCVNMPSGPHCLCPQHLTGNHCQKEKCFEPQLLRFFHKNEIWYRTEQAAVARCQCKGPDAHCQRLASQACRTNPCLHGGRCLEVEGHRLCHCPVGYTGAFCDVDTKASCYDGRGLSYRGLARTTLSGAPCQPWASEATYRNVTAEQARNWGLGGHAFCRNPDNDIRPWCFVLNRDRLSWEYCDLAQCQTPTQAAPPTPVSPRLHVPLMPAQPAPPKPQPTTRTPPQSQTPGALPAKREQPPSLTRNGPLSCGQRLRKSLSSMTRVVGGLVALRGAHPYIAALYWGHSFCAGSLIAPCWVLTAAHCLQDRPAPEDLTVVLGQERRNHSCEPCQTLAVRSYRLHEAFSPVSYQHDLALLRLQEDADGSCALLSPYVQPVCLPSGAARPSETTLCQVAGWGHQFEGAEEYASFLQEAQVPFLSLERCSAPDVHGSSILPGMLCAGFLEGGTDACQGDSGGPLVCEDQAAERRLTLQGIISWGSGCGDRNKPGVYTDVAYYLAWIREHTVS

[5] = target: DNA dC->dU-editing enzyme APOBEC-3A (Homo sapiens, UniProt P31941); experiment: Dose Response confirmation of small molecule APOBEC3A DNA Deaminase Inhibitors via a fluorescence-based single-stranded DNA deaminase assay. [Related pubchem assays (depositor defined):AID493011, AID493024]; type: functional
[6] = target: DNA dC->dU-editing enzyme APOBEC-3G (Homo sapiens, UniProt Q9HC16); type: functional;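 also: Dose-response counterscreen measuring inhibition of APOBEC3G DNA deaminase activity, run while confirming APOBEC3A inhibitors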
[7] = microbe, parasite or virus in culture; type: functional; conditions: Mycobacterium tuberculosis
[8] = THP-1 cell cytotoxicity, dose response, cytotoxicity control for non-replicating M. tuberculosis project (AID 489025); type: functional
[9] = Luminescence Cell-Based Dose Retest to Confirm Inhibitors of Cancer Stem Cells. [Related pubchem assays (depositor defined):AID2717, AID2721]; type: functional; conditions: Homo sapiens
[10] = Vero E6 cell cytotoxicity, dose response, cytotoxicity control for non-replicating M. tuberculosis project, secondary assay (AID 492998); type: functional, VeroE6; conditions: Vero C1008
[11] = target: T2, Microphthalmia-associated transcription factor (Homo sapiens, UniProt O75030); experiment: TRPM1 promoter luciferase signal decrease, dose response, MITF inhibitor project, cell-based, SK-MEL-5, cherry-picked, set 3 (AID 493073); type: functional
T2 sequence (O75030 whole entry): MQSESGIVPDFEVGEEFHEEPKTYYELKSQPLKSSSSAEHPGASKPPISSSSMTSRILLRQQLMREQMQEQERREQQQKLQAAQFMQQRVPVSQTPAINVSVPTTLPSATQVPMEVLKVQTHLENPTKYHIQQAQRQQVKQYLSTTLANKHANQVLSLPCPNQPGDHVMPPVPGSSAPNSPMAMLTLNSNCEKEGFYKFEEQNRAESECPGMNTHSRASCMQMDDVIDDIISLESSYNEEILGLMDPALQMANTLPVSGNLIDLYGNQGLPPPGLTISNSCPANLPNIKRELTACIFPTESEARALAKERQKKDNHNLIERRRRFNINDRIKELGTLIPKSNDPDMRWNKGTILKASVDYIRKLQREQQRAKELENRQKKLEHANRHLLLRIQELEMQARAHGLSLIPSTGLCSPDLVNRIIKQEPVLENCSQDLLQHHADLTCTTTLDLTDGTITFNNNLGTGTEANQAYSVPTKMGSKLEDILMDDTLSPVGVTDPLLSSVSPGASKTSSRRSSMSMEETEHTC

[12] = cells; type: functional
[13] = inhibitors of intracellular T. cruzi replication, confirmation, NIH3T3 host cells, beta-gal luminescence (AID 2044); type: functional, cell-based;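 also: intracellular parasites grown in NIH/3T3 mouse fibroblasts as host cells; luminescent beta-galactosidase reporter signal from transgenic T. cruzi replicating inside host cells; inhibitors lower the luminescence signal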
[14] = cytotoxicity toward NIH3T3 fibroblasts, dose response, counter-screen, cell-based, ATP luminescence, mouse fibroblasts (AID 2010); type: functional;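 also: cells exposed to compound for about 90 hours before reading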
[15] = HEp-2 cell cytotoxicity, dose response, cytotoxicity control for RSV inhibitor project, HTS (AID 2410); type: functional; conditions: human respiratory syncytial virus
[16] = growth suppression of PTEN-null colon cells, dose response, cell-based, HCT116 PTEN knockout (AID 1047); type: functional;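 also: HCT116 colon tumor cells with PTEN knocked out; cells exposed to compound for 60 hours before readout; potency for loss of cell viability measured by luminescence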
[17] = growth suppression of beta-catenin-knockout colon cells, dose response, cell-based, HCT116, human colon tumor (AID 1045); type: functional;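 also: HCT116 colon tumor cells with beta catenin knocked out; cells exposed to compound for 60 hours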
[18] = target: T3, Ubiquitin-conjugating enzyme E2 N (Homo sapiens, UniProt P61088); type: functional;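 also: Dose-response confirmation in a TR-FRET assay detecting UBC13-driven polyubiquitin chain formation, inhibition measured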
T3 sequence (P61088 whole entry): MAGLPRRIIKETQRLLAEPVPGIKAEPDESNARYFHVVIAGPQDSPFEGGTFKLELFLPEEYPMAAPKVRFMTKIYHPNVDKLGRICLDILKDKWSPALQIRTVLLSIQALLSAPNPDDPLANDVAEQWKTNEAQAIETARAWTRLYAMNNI

[19] = Luminescence Cell-Based Dose Confirmation HTS to Identify Activators of 5'UTR Stem-Loop Driven Alpha-Synuclein mRNA Translation in H4 Neuroglioblastoma Cells. [Related pubchem assays: 1829 (Project Summary), 1814 (Primary HTS)]; type: functional
[20] = Luminescence Cell-Based Dose Response HTS to Identify Activators of Luciferase Translation or Activity in H4 […] Cells. [Related pubchem assays: 1829 (Project Summary), 1814 (Primary HTS)]; type: functional
[21] = test system: H4; experiment: Luminescence Cell-Based Dose Response HTS to Identify Activators of 5'UTR Stem-Loop Driven Prion Protein mRNA Translation in H4 Neuroglioblastoma Cells. [Related pubchem assays: 1829 (Project Summary), 1814 (Primary HTS)]; type: functional; conditions: Homo sapiens
[22] = target: T4, Cytochrome P450 1A2 (Homo sapiens, UniProt P05177);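 also: PubChem cytochrome P450 panel assay, CYP1A2 panel member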
T4 sequence (P05177 whole entry): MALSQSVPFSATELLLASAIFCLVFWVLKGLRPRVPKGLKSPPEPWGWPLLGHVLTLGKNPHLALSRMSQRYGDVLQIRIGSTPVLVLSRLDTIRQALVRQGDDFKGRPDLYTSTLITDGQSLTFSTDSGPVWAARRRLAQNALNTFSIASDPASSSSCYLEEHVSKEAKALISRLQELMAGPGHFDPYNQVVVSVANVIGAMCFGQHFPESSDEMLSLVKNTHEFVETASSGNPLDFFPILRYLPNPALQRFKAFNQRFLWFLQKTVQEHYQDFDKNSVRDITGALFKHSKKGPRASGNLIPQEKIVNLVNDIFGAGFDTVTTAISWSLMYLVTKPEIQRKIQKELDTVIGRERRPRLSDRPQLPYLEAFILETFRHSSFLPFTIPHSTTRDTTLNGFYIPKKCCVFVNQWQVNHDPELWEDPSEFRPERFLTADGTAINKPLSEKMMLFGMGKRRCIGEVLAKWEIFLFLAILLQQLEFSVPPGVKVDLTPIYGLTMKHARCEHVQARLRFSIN

[23] = target: T5, Replicative DNA helicase DnaB (Mycobacterium tuberculosis, UniProt P9WMR3); experiment: DnaB intein splicing inhibitors, dose response, biochemical, cell-free fluorescence (AID 449749); type: functional
T5 sequence (P9WMR3 whole entry): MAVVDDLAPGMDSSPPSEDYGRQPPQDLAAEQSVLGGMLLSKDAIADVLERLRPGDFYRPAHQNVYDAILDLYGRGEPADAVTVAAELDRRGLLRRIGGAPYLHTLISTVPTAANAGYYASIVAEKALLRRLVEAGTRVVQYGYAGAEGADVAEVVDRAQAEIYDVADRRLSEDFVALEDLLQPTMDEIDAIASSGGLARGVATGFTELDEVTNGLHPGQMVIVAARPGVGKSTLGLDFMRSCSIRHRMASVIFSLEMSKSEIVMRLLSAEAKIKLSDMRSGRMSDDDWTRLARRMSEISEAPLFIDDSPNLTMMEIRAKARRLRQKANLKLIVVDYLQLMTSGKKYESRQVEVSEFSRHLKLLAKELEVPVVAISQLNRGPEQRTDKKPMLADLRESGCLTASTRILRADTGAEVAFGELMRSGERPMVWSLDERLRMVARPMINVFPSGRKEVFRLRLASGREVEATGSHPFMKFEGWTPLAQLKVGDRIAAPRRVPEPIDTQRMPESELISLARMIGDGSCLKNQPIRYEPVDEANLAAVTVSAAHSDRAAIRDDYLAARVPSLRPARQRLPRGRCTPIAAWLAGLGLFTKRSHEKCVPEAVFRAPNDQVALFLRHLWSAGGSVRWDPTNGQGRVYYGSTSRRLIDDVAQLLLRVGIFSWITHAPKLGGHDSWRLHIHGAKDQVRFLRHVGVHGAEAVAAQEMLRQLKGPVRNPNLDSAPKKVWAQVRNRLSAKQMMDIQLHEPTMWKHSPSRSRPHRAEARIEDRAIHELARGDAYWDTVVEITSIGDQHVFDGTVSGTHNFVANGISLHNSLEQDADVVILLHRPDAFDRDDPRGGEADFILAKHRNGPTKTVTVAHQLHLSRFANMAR

[24] = target: T6, Protein RecA (Mycobacterium tuberculosis, UniProt P9WHJ3); experiment: Fluorescence Cell-Free Homogeneous Dose Retest to Identify Inhibitors of RecA-Intein Splicing Activity. [Related pubchem assays (depositor defined):AID2097, AID2223, AID489010, AID492950]; type: functional
T6 sequence (P9WHJ3 whole entry): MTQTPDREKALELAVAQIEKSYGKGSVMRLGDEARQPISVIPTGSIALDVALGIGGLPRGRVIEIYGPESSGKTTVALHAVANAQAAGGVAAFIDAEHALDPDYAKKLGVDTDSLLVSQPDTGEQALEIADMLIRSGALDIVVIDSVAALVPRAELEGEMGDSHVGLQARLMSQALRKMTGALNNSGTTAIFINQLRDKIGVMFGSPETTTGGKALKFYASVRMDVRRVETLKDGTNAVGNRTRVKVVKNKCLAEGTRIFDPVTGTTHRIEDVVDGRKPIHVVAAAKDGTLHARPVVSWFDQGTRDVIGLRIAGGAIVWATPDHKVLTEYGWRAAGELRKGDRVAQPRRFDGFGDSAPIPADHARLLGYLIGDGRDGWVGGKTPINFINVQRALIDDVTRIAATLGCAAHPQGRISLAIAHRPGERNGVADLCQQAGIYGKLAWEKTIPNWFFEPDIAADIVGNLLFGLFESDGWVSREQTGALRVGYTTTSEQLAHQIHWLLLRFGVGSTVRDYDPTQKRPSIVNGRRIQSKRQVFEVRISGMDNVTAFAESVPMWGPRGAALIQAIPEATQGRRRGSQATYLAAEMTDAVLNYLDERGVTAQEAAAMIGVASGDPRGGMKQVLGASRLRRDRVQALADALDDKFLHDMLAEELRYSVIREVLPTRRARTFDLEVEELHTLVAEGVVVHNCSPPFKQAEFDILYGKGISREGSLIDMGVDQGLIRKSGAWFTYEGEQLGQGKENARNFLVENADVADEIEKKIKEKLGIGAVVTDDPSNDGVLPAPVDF

Chain of Nonstructural protein 1 (Q194T2 whole entry): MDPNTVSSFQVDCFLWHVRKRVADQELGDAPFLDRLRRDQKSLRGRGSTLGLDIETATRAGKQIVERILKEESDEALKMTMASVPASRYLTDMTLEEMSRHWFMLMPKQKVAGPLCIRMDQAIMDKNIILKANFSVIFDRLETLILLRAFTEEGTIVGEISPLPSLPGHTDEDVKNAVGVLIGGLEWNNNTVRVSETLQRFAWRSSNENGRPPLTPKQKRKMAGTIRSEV
Chain of Cytochrome P450 3A4 (P08684 whole entry): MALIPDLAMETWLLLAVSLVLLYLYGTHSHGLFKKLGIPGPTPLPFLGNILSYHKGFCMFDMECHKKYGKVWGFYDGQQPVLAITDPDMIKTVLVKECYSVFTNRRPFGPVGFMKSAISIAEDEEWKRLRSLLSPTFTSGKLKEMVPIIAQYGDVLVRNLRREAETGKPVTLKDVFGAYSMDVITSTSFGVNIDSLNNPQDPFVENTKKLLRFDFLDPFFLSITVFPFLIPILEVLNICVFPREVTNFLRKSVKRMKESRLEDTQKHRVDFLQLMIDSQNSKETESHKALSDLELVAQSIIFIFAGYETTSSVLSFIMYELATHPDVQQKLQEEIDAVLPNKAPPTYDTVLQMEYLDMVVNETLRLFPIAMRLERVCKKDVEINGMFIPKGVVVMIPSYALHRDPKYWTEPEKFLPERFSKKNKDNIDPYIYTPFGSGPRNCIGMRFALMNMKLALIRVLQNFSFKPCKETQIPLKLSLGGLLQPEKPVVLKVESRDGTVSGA
Chain of DNA dC->dU-editing enzyme APOBEC-3A (P31941 whole entry): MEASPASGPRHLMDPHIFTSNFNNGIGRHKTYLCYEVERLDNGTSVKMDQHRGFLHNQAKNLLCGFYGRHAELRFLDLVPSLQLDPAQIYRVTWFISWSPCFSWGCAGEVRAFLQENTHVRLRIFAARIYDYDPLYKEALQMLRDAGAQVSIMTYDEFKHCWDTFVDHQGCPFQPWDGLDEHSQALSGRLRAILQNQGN
Chain of DNA dC->dU-editing enzyme APOBEC-3G (Q9HC16 whole entry): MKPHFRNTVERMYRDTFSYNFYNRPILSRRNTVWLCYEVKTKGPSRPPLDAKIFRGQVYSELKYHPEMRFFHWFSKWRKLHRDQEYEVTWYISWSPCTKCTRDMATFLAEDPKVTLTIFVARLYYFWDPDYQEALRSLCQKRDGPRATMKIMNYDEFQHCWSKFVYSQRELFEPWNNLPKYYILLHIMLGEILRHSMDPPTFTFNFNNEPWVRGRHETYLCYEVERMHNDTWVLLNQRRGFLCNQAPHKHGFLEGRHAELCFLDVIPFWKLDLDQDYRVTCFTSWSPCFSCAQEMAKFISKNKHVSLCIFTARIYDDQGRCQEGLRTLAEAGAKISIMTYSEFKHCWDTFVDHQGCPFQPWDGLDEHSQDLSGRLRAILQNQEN
Chain of Induced myeloid leukemia cell differentiation protein Mcl-1 (Q07820 whole entry): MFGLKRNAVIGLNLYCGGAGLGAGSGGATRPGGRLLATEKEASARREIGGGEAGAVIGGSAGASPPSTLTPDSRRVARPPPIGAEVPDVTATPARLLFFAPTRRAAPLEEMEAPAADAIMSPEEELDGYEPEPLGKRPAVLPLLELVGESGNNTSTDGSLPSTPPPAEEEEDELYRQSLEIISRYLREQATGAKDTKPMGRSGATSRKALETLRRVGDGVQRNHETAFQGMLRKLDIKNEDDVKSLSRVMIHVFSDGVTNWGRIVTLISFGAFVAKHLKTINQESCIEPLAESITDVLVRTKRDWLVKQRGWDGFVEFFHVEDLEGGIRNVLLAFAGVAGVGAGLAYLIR

Structure (SMILES): CC(=O)N1CCC2(CC1)CN(C(c1ccccc1)c1ccccc1)C2
- AC50 [1]: inconclusive

Structure (SMILES): c1cncc(C2Nc3cccc4cccc(c34)N2)c1
- IC50 [2]: 9.59 µM (active)
- IC50 [3]: > 100 µM (active)

Structure (SMILES): COc1ccc(/C=C2/SC(=S)N(n3c(C)ccc3C)C2=O)cc1
- IC50 [4]: > 50 µM (inactive)

Structure (SMILES): CCCN(C/C=C\I)[C@@H]1CCc2cccc(O)c2C1
- AC50 [1]: inconclusive

Structure (SMILES): CCN1C(NCCOC)=N[C@@H](c2cccc(C(F)(F)F)c2)C(C(=O)OC)=C1C
- IC50 [5]: 2.09 µM (active)
- IC50 [6]: 1.95 µM (active)

Structure (SMILES): COc1ccccc1OCCN1CSC(=S)N(C)C1
- CC50 [7]: 7.54 µM (active)
- CC50 [8]: 6.71 µM (active)
- AC50 [9]: 2.4 µM (active)
- CC50 [10]: 5.83 µM (active)
- AC50 [11]: 12.2 µM (active)
- IC50 [12]: 6.69 µM (active)

Structure (SMILES): CC1CCCC(C2(O)C(=O)Nc3ccccc32)C1=O (stereo unspecified)
- IC50 [5]: 5.46 µM (active)
- IC50 [6]: 5.64 µM (active)

Structure (SMILES): COc1ccc(CNC(=O)C2CSC(=O)C2)cc1 (stereo unspecified)
- EC50 [13]: > 30 µM (not active)
- EC50 [14]: 10.3 µM (active)
- AC50 [1]: inconclusive

Structure (SMILES): O=C(NC(=S)N1CCN(Cc2ccc3c(c2)OCO3)CC1)c1ccc(Cl)cc1
- CC50 [10]: 19.2 µM (active)
- IC50 [12]: 18.1 µM (active)

Structure (SMILES): CCCCCCCSc1cc(OC)c(CCN(C)C)cc1OC
- CC50 [15]: 21.3 µM (active)
- EC50 [16]: 9.16 µM (active)
- EC50 [17]: 7.83 µM (active)
- IC50 [18]: > 20 µM (inactive)
- IC50 [3]: 44.4 µM (active)

Structure (SMILES): CCc1nnc(NC(=O)c2cc(-c3ccccc3)nn2-c2ccccc2)s1
- EC50 [19]: > 120 µM (not active)
- EC50 [20]: 7.74 µM (active)
- EC50 [21]: > 120 µM (not active)
- AC50 [22]: 15.8 µM (inconclusive)
- AC50 [1]: inconclusive

Structure (SMILES): Cc1ccc(C(=O)C(=O)c2ccc(C)c(N)c2)cc1N
- IC50 [4]: 15.7 µM (active)

Structure (SMILES): Nc1n[nH]c(SCn2nnc3ccccc3c2=O)n1
- IC50 [4]: > 50 µM (inactive)

Structure (SMILES): NNC(=O)c1ccc(CSc2nc3ccccc3s2)cc1
- IC50 [4]: > 50 µM (inactive)

Structure (SMILES): Cc1ccc(C)c(NC(=O)CSc2n[nH]c(-c3ccccn3)n2)c1
- IC50 [3]: 5.46 µM (active)
- AC50 [23]: 163 µM (active)
- EC50 [24]: > 380 µM (inactive)
